Assay results reported in PMC9967538, “Cytotoxic Effect of Phenylethanoid Glycosides Isolated from Plantago lanceolata L” (Life, 2023).
Like-named read-outs stand apart in the source and are kept apart here. One block for each compound: values may come before it.

Legend:
[1] = test system: C6 rat glioblastoma cell line; design: method as in PMID 30664150; details: C6 cells, administered separately, cited from earlier work
[2] = test system: d R Lh-84 cells (rat liver cancer); design: method as in PMID 8593444; details: cited from earlier work
[3] = test system: P-388/D1 (mouse lymphoid tumor); design: method as in PMID 8593444; details: cited from earlier work
protein kinase C (PKC) = details: cited from earlier work
[4] = test system: MDA-MB-231 breast adenocarcinoma cell line; assay: MTT cell proliferation assay, MDA-MB-231; type: cell-based, human; details: for IC50: Homo sapiens, MTT, estimation ± SE
[5] = MTT cell proliferation assay, MDA-MB-231; type: cell-based, human; details: human
[6] = test system: MCF-7 breast cancer cells; design: method as in PMID 34719192; details: cell counting kit 8, cited from earlier work
S-180 (sarcoma) = test system: S-180 (sarcoma); design: method as in PMID 8593444; details: cited from earlier work
[7] = test system: HL-60 promyelocytic leukemia cells; design: method as in PMID 9477175; details: HL-60 cell death; cited from earlier work
MDA-MB 231 cells = test system: MDA-MB 231 cells; design: method as in PMID 34719192; details: cell counting kit 8, cited from earlier work
[8] = type: cell-based; details: human
[9] = test system: Caco-2 colorectal adenocarcinoma cell line; assay: MTT cell proliferation assay, Caco-2; type: cell-based; details: Homo sapiens, estimation ± SE
[10] = test system: OVCAR-3 ovarian cancer cell line; assay: MTT cell proliferation assay, OVCAR-3; type: cell-based, human; details: for IC50: Homo sapiens, MTT, estimation ± SE
[11] = MTT cell proliferation assay, OVCAR-3; type: cell-based, human; details: human
[12] = test system: HepG2 hepatocarcinoma cell line; assay: MTT cell proliferation assay, HepG2; type: cell-based, human; details: Homo sapiens, MTT, estimation ± SE
[13] = MTT cell proliferation assay, HepG2; type: cell-based, human; details: human
[14] = test system: MCF-12A nontumorigenic mammary epithelial cell line; assay: MTT cell proliferation assay, MCF-12A; type: cell-based, human; details: Homo sapiens, MCF-12A
[15] = MTT cell proliferation assay, MCF-12A; type: cell-based, human; details: human
[16] = test system: MCF-7 breast adenocarcinoma cell line; assay: MTT cell proliferation assay, MCF-7; type: cell-based, human; details: for IC50: Homo sapiens, MCF7, MTT, estimation ± SE
[17] = MTT cell proliferation assay, MCF-7; type: cell-based, human; details: human
[18] = test system: HeLa (human epithelial carcinoma); design: method as in PMID 8593444; details: cited from earlier work
[19] = test system: glioblastoma cell line T98G; design: method as in PMID 36551708; details: cited from earlier work
[20] = test system: lymphocytic leukemia cells P-388; design: method as in PMID 2380718; details: cited from earlier work
[21] = test system: pre-senescent normal human diploid fibroblasts; design: method as in PMID 29505920; details: 3-week treatment; cited from earlier work

- IC50 ([4]; MDA-MB-231, 24 h): 312 ± 3.28 µM
- IC50 ([4]; MDA-MB-231, 48 h): 245 ± 4.96 µM
- IC50 ([4]; MDA-MB-231, 72 h): 200 ± 2.45 µM
- IC50 ([9]; Caco-2, 24 h, values exceeding 500 μM determined with CompuSyn from dose-response curve estimation): > 500 µM
- IC50 ([9]; Caco-2, 48 h): 467 ± 8.71 µM
- IC50 ([9]; Caco-2, 72 h): 280 ± 6.13 µM
- IC50 ([10]; OVCAR-3, 24 h): 314 ± 3.52 µM
- IC50 ([10]; OVCAR-3, 48 h): 232 ± 5.08 µM
- IC50 ([10]; OVCAR-3, 72 h): 163 ± 3.41 µM
- IC50 ([12]; HepG2, 24 h): 261 ± 3.52 µM
- IC50 ([12]; HepG2, 48 h): 220 ± 2.65 µM
- IC50 ([12]; HepG2, 72 h): 173.8 ± 1.59 µM
- IC50 ([16]; MCF-7, 24 h): 219.1 ± 1.4 µM
- IC50 ([16]; MCF-7, 48 h): 154 ± 2.71 µM
- IC50 ([16]; MCF-7, 72 h): 113 ± 2.81 µM
Compound: C[C@@H]1O[C@@H](O[C@@H]2[C@@H](O)[C@H](OCCc3ccc(O)c(O)c3)O[C@H](CO)[C@H]2OC(=O)/C=C/c2ccc(O)c(O)c2)[C@H](O)[C@H](O)[C@H]1O [Acteoside]
- cell viability ([1]; 50 µM): ~80%
- IC50 [2]: 61.98 µg/mL
- IC50 ([2]; converted from µg/mL, read-out: IC50): 99.2 µM
- IC50 ([3]; P-388/D1, converted from µg/mL, read-out: IC50): 354 µM
- IC50 ([3]; P-388/D1): 221.0 µg/mL
- inhibition of protein kinase C (in words) (protein kinase C (PKC)): inhibitor
- toxic effect (in words) ([4]; MDA-MB-231, 200 μM, after 24 h of treatment): highly toxic effect
- viability at 200 µM [5]: ≤ 30%
- IC50 ([6]; MCF-7, 24 h exposure): 127 nM
- IC50 ([6]; MCF-7, 48 h exposure): 217 nM
- IC50 ([6]; MCF-7, 72 h exposure): 283 nM
- IC50 (S-180 (sarcoma); S-180, converted from µg/mL, read-out: IC50): 47.4 µM
- IC50 (S-180 (sarcoma); S-180): 29.6 µg/mL
- IC50 [7]: 26.7 µM
- IC50 (MDA-MB 231 cells; MDA-MB 231, 24 h exposure): 160 nM
- IC50 (MDA-MB 231 cells; MDA-MB 231, 48 h exposure): 258 nM
- IC50 (MDA-MB 231 cells; MDA-MB 231, 72 h exposure): 256 nM
- viability at 200 µM [8]: ≤ 30%
- toxic effect (in words) ([10]; OVCAR-3, 200 μM, after 24 h of treatment): highly toxic effect
- viability at 200 µM [11]: ≤ 30%
- viability at 200 µM [13]: ≤ 30%
- IC50 ([14]; 24 h, MTT, estimation ± SE, read-out: IC50): 362.3 ± 1.86 µM
- IC50 ([14]; 48 h, MTT, estimation ± SE, read-out: IC50): 347 ± 3.67 µM
- IC50 ([14]; 72 h, MTT, estimation ± SE, read-out: IC50): 326 ± 3.89 µM
- IC50 ([14]; time not stated, summary of Table 1, read-out: IC50 (potency against the MCF-12A line)): ~300 µM
- viability at 400 µM [15]: < 30%
- toxic effect (in words) ([16]; MCF-7, 200 μM, after 24 h of treatment): highly toxic effect
- viability at 200 µM [17]: ≤ 30%
- IC50 ([18]; HeLa (human epithelial carcinoma), first value listed, converted, read-out: IC50): > 320 µM
- IC50 ([18]; HeLa (human epithelial carcinoma), first value listed): > 200 µg/mL
- IC50 ([18]; HeLa cells, second value listed, converted, read-out: IC50): 12.5 µM
- IC50 [19]: 85 µM
- ED50 ([20]; lymphocytic leukemia cells P-388, converted from µg/mL): 4.16 µM
- ED50 ([20]; lymphocytic leukemia cells P-388): 2.6 µg/mL
- cytotoxic effect (in words) [21]: no cytotoxic effect

Compound: Cn1nnc2c(C(N)=O)ncn2c1=O [temozolomide, reference compound]
- cell viability ([1]; 5 mM): ca. 52%

Compound: O=c1cc(-c2ccc(O)c(O)c2)oc2c([C@@H]3O[C@H](CO)[C@@H](O)[C@H](O)[C@H]3O)c(O)cc(O)c12 [orientin, reference compound]
- IC50 [19]: > 100 µM
